Consider five compounds from patent US12391640B2, “Process of making a crystalline EDG-2 receptor antagonist” (HORIZON THERAPEUTICS IRELAND DAC, priority 2022, dated 2025).

A short description of series [1]: Solubility of Compound I in solvents at neutral/acidic pH. The format is physicochemical.
For series [2], the target named is T1, LPA1 receptor (Mus musculus, UniProt P61793).
T1 construct: from tissue; host or cells: living mouse (skin), endogenous receptor
As to conditions: mouse model of skin fibrosis; cited from earlier work.

For series [3], the target named is T2, LPA1 receptor (Homo sapiens, UniProt Q92633).
T2 construct: host or cells: patients (endogenous receptor), clinical study cited from Allanore et al. 2018
As to conditions: patients with dcSSc; cited from earlier work.

A short description of series [4]: Physical stability of solid state forms at 80° C./75% RH, examined by FTIR. In kind it is physicochemical. As to conditions: 1 week, open glass vials. The protocol: The physical stability of Forms 1, 2, and 3 was investigated at 80° C./75% RH in order to determine if interconversion was observed. The samples were examined by FTIR after stressing 1 week in open glass vials.

Series [5] in a line: Form conversion when slurried in solvent, determined by FTIR. In kind it is physicochemical. As to conditions: slurried in MEK or 1-pentanol at 60° C. or 70° C.
Series [6] can be described thus: Solubility of the polymorphs at pH 7.4 in phosphate buffer. The conditions noted are these: pH 7.4 phosphate buffer, 25° C. The format is physicochemical. The protocol:
The solubility of the different polymorphs was determined at pH 7.4 in phosphate buffer at 25° C. Samples were analyzed as a function of time for each form to determine the equilibrium values. The residual solids from each sample were analyzed to verify that the form was unchanged during the experiment. The concentration (mg/mL) versus time data is listed below for each form: […]

T1 sequence (P61793 whole entry): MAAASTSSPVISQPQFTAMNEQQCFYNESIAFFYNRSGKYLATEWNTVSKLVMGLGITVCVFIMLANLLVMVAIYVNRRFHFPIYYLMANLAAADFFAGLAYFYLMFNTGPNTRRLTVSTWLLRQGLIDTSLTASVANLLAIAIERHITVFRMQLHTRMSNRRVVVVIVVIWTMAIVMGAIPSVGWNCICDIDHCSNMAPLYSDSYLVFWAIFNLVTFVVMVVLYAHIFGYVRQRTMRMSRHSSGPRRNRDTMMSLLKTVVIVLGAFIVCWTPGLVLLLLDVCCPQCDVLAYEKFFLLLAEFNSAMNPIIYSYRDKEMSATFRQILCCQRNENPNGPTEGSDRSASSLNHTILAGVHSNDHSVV
T2 sequence (Q92633 whole entry): as the sequence (P61793 whole entry) above, with A4I, S8I, Q22P, Y40H, V61I, D193E, H194N, V269I, N331S, N335T counted along it

On to `COc1ccc(C(=O)NC2(C(=O)O)Cc3ccccc3C2)cc1OCCc1cccc(C)c1` [Compound I, 2-(4-methoxy-3-(3-methylphenethoxy)benzamido)-2,3-dihydro-1H-indene-2-carboxylic acid], for which the “solubility in most solvents” value in series [1] is “highly insoluble”. For the same compound, on LPA1 receptor [2], the collagen content entry is reported as “reduced collagen content”, the dermal thickening result is “reversed dermal thickening” and the myofibroblast differentiation entry is listed as “significantly inhibited myofibroblast differentiation”. At LPA1 receptor [3], the outcome measures is recorded as “improved outcome measures”, the target engagement entry was “demonstrated target engagement” and the tolerability result is given as “well tolerated”.

Regarding `COc1ccc(C(=O)NC2(C(=O)O)Cc3ccccc3C2)cc1OCCc1cccc(C)c1` [Form 1, 2-(4-methoxy-3-(3-methylphenethoxy)benzamido)-2,3-dihydro-1H-indene-2-carboxylic acid], in series [4], the “changes in FTIR spectrum after stressing (physical stability)” value is “unchanged FTIR”. For the same compound, in series [5], the “form conversion in slurry” value is on record as “converts to crystalline Form 2”.

In the case of `COc1ccc(C(=O)NC2(C(=O)O)Cc3ccccc3C2)cc1OCCc1cccc(C)c1` [Form 2, 2-(4-methoxy-3-(3-methylphenethoxy)benzamido)-2,3-dihydro-1H-indene-2-carboxylic acid], the “24 hour solubility result greater than Form 1” value in series [6] (24 hour) was “more than 30%”.

For the compound `COc1ccc(C(=O)NC2(C(=O)O)Cc3ccccc3C2)cc1OCCc1cccc(C)c1` [Form 3, 2-(4-methoxy-3-(3-methylphenethoxy)benzamido)-2,3-dihydro-1H-indene-2-carboxylic acid], the “equilibrium solubility at 24 hours relative to Form 1” value in series [6] is reported as “more than double”.

On to `COc1ccc(C(=O)NC2(C(=O)O)Cc3ccccc3C2)cc1OCCc1cccc(C)c1` [Form 4, 2-(4-methoxy-3-(3-methylphenethoxy)benzamido)-2,3-dihydro-1H-indene-2-carboxylic acid], for which, in series [6], the “equilibrium solubility at 24 hours relative to Form 1” value was “more than double”.
